Assay results reported in patent US20080213356A1, “Pharmaceutical Composition Containing Hmg-Coa Reductase Inhibitor And Method For The Preparation Thereof” (PHARMATHEN S.A., priority 2005, published 2008).
Counter-ions that a name gives are not always drawn.

Assay: Flowability and compressibility, Carr's Index
Format: physicochemical
Settings: pure pharmaceutical substance
Source text: However, when Dimethicone was incorporated according to the present invention, a decrease of 40-50% of the Carr Index was observed, which indicates an improvement of the flow properties of Fluvastatin and Atorvastatin and therefore the use of a direct compression for the final formulation.

With `CC(C)c1c(C(=O)Nc2ccccc2)c(-c2ccccc2)c(-c2ccc(F)cc2)n1CC[C@@H](O)C[C@@H](O)CC(=O)O` (relative stereo) [Atorvastatin, [R—(R*,R*)]-2-(4-fluorophenyl)-b,d-dihydroxy-5-(1-methylethyl)-3-phenyl-4 [(phenylamino)carbonyl]-1H-pyrrole-1-heptanoic acid, calcium salt (2:1) trihydrate] the “mean Carr's Index” value was 24-25%.
